This is an account of results in ChEMBL document CHEMBL5291721, “A preclinical secondary pharmacology resource illuminates target-adverse drug reaction associations of marketed drugs” (Nat Commun, 2023).

Each structure is given as a SMILES string.

Assay [1] concerns the target Neuronal acetylcholine receptor subunit alpha-4 (Homo sapiens, UniProt P43681).
Assay [2] has as its target T1, Amine oxidase [flavin-containing] A (Homo sapiens, UniProt P21397).
T1 sequence (P21397 whole entry): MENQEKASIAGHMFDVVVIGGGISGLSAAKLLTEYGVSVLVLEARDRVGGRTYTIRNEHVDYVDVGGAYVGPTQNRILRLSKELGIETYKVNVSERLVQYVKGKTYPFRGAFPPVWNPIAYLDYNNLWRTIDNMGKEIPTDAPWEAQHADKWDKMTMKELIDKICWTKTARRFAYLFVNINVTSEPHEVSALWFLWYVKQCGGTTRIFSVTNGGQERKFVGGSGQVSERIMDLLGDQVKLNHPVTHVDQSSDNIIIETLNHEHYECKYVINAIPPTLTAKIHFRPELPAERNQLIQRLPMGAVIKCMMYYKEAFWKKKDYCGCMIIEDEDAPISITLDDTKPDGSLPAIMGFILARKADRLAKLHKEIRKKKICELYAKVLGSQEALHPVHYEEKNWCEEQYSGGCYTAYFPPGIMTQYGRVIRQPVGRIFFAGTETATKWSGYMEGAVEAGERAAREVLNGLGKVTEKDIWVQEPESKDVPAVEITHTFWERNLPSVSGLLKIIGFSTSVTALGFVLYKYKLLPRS
Format: functional.

The target in assay [3] is T2, Alpha-2A adrenergic receptor (Homo sapiens, UniProt P08913).
T2 sequence (P08913 whole entry): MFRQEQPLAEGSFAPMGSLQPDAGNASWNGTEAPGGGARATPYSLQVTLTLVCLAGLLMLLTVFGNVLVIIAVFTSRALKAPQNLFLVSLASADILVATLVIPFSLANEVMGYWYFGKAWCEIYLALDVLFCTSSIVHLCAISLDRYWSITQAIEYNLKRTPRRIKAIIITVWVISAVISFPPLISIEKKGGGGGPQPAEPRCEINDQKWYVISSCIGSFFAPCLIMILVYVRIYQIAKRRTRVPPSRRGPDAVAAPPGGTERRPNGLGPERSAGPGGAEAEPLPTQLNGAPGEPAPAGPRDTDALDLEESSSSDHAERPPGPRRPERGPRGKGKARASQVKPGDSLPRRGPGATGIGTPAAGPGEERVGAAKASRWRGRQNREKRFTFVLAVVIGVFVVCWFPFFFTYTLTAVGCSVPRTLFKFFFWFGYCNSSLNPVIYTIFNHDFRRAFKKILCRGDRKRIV
It counts as functional, cell-based.

The target in assay [4] is Gamma-aminobutyric acid receptor subunit alpha-1 (Rattus norvegicus, UniProt P62813). Format: functional.
Gamma-aminobutyric acid receptor subunit alpha-1, sequence (P62813 whole entry): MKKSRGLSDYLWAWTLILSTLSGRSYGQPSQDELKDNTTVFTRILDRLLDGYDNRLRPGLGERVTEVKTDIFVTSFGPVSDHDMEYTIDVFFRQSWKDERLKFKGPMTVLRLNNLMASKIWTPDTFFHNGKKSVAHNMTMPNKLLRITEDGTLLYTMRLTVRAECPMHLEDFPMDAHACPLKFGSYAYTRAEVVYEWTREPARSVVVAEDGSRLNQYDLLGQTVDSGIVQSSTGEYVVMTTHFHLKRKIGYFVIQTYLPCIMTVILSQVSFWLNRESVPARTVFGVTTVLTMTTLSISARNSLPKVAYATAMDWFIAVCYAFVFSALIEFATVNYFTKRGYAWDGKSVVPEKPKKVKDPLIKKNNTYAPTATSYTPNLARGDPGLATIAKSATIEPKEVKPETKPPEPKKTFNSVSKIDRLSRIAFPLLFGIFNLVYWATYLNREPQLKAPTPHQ
In assay [5] the target is T3, Alpha-2C adrenergic receptor (Homo sapiens, UniProt P18825).
T3 sequence (P18825 whole entry): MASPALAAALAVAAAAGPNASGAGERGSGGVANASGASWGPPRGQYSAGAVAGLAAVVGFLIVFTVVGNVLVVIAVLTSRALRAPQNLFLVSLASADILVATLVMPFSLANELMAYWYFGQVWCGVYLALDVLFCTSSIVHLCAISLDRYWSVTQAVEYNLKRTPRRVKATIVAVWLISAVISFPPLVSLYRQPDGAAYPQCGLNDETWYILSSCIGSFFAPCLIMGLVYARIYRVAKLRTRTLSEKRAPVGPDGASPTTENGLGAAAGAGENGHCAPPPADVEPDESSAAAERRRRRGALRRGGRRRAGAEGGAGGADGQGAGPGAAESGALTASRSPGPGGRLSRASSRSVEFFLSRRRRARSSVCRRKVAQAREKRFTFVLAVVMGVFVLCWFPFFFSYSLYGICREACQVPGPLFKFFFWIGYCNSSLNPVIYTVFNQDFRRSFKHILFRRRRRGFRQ
It counts as functional.

Assay [6] addresses Sodium-dependent noradrenaline transporter (Homo sapiens, UniProt P23975).
Assay [7] concerns the target T4, 5-hydroxytryptamine receptor 2C (Homo sapiens, UniProt P28335).
T4 sequence (P28335 whole entry): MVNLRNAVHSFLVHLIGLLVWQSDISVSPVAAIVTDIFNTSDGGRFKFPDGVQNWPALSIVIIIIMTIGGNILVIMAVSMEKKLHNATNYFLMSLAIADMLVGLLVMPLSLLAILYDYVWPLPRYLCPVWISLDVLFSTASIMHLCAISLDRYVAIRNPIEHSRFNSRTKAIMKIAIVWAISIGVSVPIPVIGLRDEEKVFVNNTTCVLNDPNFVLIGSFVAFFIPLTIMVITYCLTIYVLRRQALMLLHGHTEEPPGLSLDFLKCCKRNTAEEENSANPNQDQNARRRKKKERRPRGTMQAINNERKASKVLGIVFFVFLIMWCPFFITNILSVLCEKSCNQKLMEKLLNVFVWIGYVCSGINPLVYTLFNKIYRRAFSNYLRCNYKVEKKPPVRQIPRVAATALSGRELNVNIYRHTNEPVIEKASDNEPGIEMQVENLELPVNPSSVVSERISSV

The target in the next assay is Melanocortin receptor 3 (Homo sapiens, UniProt P41968).
Melanocortin receptor 3, sequence (P41968 whole entry): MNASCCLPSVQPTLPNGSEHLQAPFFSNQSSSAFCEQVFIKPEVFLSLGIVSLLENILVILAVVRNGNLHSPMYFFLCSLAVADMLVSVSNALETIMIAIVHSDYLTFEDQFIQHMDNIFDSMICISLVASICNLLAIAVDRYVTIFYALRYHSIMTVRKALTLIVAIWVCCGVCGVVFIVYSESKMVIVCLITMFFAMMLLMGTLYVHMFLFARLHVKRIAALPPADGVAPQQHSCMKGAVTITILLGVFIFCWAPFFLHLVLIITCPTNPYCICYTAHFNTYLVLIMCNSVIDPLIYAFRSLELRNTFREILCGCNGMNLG
For a further assay, the target named is Adenosine receptor A2a (Homo sapiens, UniProt P29274).
Adenosine receptor A2a, sequence (P29274 whole entry): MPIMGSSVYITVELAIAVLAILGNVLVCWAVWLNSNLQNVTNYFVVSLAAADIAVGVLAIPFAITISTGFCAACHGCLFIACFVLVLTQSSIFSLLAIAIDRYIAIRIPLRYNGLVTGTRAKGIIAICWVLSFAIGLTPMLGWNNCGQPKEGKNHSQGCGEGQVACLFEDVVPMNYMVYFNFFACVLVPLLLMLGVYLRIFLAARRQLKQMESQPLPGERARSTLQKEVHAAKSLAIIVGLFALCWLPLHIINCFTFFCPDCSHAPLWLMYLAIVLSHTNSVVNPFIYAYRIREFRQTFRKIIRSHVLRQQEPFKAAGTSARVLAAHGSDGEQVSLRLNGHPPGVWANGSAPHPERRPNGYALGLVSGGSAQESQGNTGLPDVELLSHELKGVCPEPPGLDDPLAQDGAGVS
The target of assay [8] is T5, Type-1 angiotensin II receptor (Homo sapiens, UniProt P30556).
T5 sequence (P30556 whole entry): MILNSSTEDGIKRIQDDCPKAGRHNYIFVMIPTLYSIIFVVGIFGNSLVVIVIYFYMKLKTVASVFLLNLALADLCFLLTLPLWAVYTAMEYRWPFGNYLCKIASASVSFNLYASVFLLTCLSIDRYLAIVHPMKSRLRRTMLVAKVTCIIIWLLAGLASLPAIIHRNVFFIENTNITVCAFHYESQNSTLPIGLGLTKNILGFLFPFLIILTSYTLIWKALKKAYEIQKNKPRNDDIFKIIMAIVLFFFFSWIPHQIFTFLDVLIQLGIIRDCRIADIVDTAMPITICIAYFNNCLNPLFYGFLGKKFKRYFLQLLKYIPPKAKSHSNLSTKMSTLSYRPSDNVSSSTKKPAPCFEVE

For assay [9], the target named is Voltage-gated inwardly rectifying potassium channel KCNH2 (Homo sapiens, UniProt Q12809). Format: functional. Particulars: read-out: AC50.
Voltage-gated inwardly rectifying potassium channel KCNH2, sequence (Q12809 whole entry): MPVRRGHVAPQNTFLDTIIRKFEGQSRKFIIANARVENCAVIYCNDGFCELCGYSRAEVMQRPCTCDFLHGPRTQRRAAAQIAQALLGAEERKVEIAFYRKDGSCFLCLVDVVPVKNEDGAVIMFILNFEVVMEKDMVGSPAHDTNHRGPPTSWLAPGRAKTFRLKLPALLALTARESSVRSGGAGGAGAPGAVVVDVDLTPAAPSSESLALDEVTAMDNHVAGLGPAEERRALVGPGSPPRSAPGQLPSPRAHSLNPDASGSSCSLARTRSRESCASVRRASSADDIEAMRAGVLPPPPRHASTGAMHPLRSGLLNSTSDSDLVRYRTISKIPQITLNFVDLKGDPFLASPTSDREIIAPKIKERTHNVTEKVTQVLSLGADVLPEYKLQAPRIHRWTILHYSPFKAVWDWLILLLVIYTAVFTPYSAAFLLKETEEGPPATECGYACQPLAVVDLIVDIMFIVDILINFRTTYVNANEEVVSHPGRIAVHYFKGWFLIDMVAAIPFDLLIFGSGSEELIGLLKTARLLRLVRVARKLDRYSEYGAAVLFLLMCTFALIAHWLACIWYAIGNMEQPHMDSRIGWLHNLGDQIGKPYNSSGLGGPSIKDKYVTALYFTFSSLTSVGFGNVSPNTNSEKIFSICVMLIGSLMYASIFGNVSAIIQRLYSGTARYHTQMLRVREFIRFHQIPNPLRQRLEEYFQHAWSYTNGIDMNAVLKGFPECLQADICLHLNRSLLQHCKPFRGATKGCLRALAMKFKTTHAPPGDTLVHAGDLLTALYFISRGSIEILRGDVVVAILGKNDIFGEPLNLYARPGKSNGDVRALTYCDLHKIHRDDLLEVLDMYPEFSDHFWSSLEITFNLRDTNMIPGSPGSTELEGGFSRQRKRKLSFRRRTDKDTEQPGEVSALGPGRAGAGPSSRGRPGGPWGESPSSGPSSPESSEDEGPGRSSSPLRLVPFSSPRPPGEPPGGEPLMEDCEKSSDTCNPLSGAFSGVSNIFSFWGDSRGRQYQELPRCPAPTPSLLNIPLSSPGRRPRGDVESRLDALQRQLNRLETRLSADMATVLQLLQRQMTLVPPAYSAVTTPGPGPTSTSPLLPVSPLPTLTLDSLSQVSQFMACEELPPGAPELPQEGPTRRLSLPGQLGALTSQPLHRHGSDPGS
Further: assay procedure not described here.

Sodium-dependent noradrenaline transporter, sequence (P23975 whole entry): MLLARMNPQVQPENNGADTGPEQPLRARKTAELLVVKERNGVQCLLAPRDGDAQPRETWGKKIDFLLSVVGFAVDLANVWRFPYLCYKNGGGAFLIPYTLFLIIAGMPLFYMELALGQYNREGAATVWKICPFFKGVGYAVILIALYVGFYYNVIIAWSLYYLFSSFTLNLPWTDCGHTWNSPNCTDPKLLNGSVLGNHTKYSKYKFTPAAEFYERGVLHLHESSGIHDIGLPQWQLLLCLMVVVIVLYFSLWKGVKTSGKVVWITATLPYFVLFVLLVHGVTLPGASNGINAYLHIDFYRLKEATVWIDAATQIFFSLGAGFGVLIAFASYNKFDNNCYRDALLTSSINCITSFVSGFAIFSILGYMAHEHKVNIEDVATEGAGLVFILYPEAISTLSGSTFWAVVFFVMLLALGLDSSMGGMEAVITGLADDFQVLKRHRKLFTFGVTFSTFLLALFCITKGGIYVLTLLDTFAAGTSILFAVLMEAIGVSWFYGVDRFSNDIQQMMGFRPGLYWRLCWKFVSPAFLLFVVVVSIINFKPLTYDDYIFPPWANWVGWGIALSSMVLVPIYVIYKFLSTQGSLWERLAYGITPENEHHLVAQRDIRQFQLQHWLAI
Neuronal acetylcholine receptor subunit alpha-4, sequence (P43681 whole entry): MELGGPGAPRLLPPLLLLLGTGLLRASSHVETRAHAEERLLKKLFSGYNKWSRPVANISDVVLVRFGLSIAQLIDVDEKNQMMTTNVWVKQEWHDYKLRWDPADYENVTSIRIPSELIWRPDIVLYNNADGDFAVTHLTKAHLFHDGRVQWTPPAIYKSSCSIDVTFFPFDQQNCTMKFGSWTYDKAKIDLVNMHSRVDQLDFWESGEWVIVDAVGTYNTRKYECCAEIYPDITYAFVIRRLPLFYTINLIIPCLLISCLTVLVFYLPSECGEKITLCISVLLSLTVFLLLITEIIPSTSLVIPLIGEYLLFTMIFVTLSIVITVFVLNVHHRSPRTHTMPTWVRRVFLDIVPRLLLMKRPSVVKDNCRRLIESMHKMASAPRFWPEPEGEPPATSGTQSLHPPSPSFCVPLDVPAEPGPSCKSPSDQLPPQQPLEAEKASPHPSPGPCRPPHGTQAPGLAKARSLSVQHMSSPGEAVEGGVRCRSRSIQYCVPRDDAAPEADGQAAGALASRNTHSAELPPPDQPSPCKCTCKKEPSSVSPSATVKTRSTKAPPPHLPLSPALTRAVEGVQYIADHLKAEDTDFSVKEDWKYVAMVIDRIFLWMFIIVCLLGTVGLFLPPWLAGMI

Regarding `COC(=O)N[C@H](C(=O)N1CCC[C@H]1c1nc(-c2ccc(-c3ccc(-c4c[nH]c([C@@H]5CCCN5C(=O)[C@@H](NC(=O)OC)C(C)C)n4)cc3)cc2)c[nH]1)C(C)C`, the AC50 in assay [1], in assay [2], in assay [3], in [4], in [5] and in assay [6] was above 30 µM throughout. Also, the AC50 (in assay [7]; on Melanocortin receptor 3; at Adenosine receptor A2a; in assay [8]) was above 30 µM in each case.
Take `Nc1nc(N)c2nc(-c3ccccc3)c(N)nc2n1`: the concentration at half-maximal activity (AC50) in assay [1], in [2], in [3], in [4], in assay [5] and in [9] was above 30 µM in each case. Also, the AC50 (in [6]; in assay [7]; at Melanocortin receptor 3; at Adenosine receptor A2a; in assay [8]) was above 30 µM throughout.
`CN1CCCC(n2nc(Cc3ccc(Cl)cc3)c3ccccc3c2=O)CC1` (stereo unspecified) [AZELASTINE]: the AC50 was 17 µM in assay [1]; above 30 µM in assay [2]; above 30 µM in [3]; above 30 µM in assay [4]; 2.4 µM in assay [5]; 4.7 µM in assay [6]. Moreover, the AC50 (on Melanocortin receptor 3; on Adenosine receptor A2a; in assay [8]) was above 30 µM in each case.
With `COc1cc(Nc2c(C#N)cnc3cc(OCCCN4CCN(C)CC4)c(OC)cc23)c(Cl)cc1Cl` [BOSUTINIB], the AC50 was above 10 µM in assay [1]; above 10 µM in assay [4]; 1 µM in assay [5]; above 10 µM in [6]; 7 µM in [7]; 18.1 µM on Melanocortin receptor 3. In addition, the AC50 (at Adenosine receptor A2a; in assay [8]) was above 30 µM in each case.
Regarding `CCC[C@@H]1C[C@@H](C(=O)N[C@@H]([C@H]2O[C@H](SC)[C@H](O)[C@@H](O)[C@H]2O)[C@H](C)Cl)N(C)C1` [CLINDAMYCIN], the AC50 in assay [1], in [2], in assay [3], in assay [4], in assay [5] and in assay [6] was above 10 µM each time. Besides, the AC50 (in assay [7]; at Melanocortin receptor 3; on Adenosine receptor A2a; in assay [8]) was above 30 µM in each case.
On to `CN(CCOc1ccc(NS(C)(=O)=O)cc1)CCc1ccc(NS(C)(=O)=O)cc1` [DOFETILIDE], for which the AC50 in assay [1] is above 10 µM; in [2] it was above 10 µM; in assay [3] it was above 30 µM; in [4], above 10 µM; in [5] it was above 10 µM; in assay [6], above 10 µM. Moreover, the AC50 in assay [7] was above 30 µM; on Melanocortin receptor 3, above 30 µM; on Adenosine receptor A2a it was above 30 µM; in [8] it was 9.5 µM.
`COc1cc2c(cc1OC)C(=O)C(CC1CCN(Cc3ccccc3)CC1)C2` (stereo unspecified) [DONEPEZIL]: the AC50 in [1] was above 10 µM; in [3] it was above 10 µM; in assay [4] it was above 10 µM; in assay [5] it was 6.2 µM; in assay [6], 6.1 µM; in assay [7] it was above 30 µM. Further, the values for the AC50 (on Melanocortin receptor 3; at Adenosine receptor A2a; in [8]) were above 30 µM, above 30 µM and 15.6 µM, respectively.
Consider `CC(C)NNC(=O)c1ccncc1` [IPRONIAZID], for which the AC50 in assay [1], in [3], in assay [4], in assay [5], in assay [9] and in [6] was above 30 µM in each case. For the same molecule, the concentration at half-maximal activity (AC50) (in [7]; on Melanocortin receptor 3; on Adenosine receptor A2a; in assay [8]) was above 30 µM throughout.
Regarding `Cc1cccc(C)c1OCC(C)N` (stereo unspecified) [MEXILETINE], the AC50 in [1] is above 30 µM; in assay [2], 18 µM; in assay [3], above 30 µM; in [5] it was above 30 µM; in assay [9], above 30 µM; in assay [6], above 30 µM. The concentration at half-maximal activity (AC50) (at Melanocortin receptor 3; at Adenosine receptor A2a; in assay [8]) was above 30 µM each time.
On to `COC(=O)C1=C(C)NC(C)=C(C(=O)OCC(C)C)C1c1ccccc1[N+](=O)[O-]` (stereo unspecified) [NISOLDIPINE], for which the AC50 in assay [1], in [2], in assay [3], in assay [4], in assay [5] and in [6] was above 10 µM each time. Further, the AC50 was above 30 µM in [7], above 10 µM on Melanocortin receptor 3, 5.5 µM at Adenosine receptor A2a and above 10 µM in assay [8].
With `CCc1ccc(CCOc2ccc(CC3SC(=O)NC3=O)cc2)nc1` (stereo unspecified) [PIOGLITAZONE], the AC50 in [2] was above 10 µM; in assay [3], above 10 µM; in assay [4] it was above 10 µM; in assay [5], above 10 µM; in assay [9], above 30 µM; in assay [6], above 30 µM. Also, the AC50 in assay [7] was above 10 µM; on Melanocortin receptor 3, above 30 µM; on Adenosine receptor A2a it was above 30 µM; in assay [8], above 30 µM.
On to `OCc1cc([C@@H](O)CNCCCCCCOCCOCc2c(Cl)cccc2Cl)ccc1O` [VILANTEROL], for which the AC50 in assay [1] is above 30 µM; in assay [2] it was above 30 µM; in assay [3] it was above 30 µM; in [4], above 30 µM; in [5] it was above 30 µM; in assay [6], 23 µM. Moreover, the AC50 in assay [7] was above 30 µM; on Melanocortin receptor 3 it was 26 µM; on Adenosine receptor A2a, above 30 µM; in assay [8], above 30 µM.
Turning to `O=C(CCCCCCC(=O)Nc1ccccc1)NO` [VORINOSTAT], the AC50 in assay [1], in assay [2], in assay [3], in [4], in [5] and in assay [6] was above 30 µM throughout. Moreover, the AC50 (in [7]; on Melanocortin receptor 3; at Adenosine receptor A2a; in assay [8]) was above 30 µM each time.

A word on the AC50: it is the concentration at which the activity in the assay is half-maximal.
